PMC8752738, “A propolis-derived small molecule ameliorates metabolic syndrome in obese mice by targeting the CREB/CRTC2 transcriptional complex” (Nature Communications, 2022)
Values joined by “and” are separate entries in the source; they are usually repeats but may differ in a detail not shown here. Equal entries are not always repeated.

Test: Cholesterol, TG, NEFA and glycerol in serum and liver
Assay type: in vivo, mouse
Parameters: liver NEFA, Mean 2 (group mean) / Plasma VLDL cholesterol in db/db mice (VLDL-C) / Plasma VLDL cholesterol in db/db mice, group mean / TC in liver_CT2KO (total cholesterol in the liver of CRTC2-KO) / TC in liver_WT (total cholesterol in the liver) / TC in liver_WT, mean / TC in liver_WT, Mean Diff. VEH vs. drug / TC in liver_CRTC2KO, mean / TC in liver_CRTC2KO, Mean Diff. VEH vs. drug: unit not given here
Conditions: for Plasma LDLC, group mean / Plasma TC, group mean / Plasma cholesterol fraction: HDL-C / Plasma cholesterol fraction: TC / Plasma cholesterol fraction: lDL-C / plasma VLDL-C in HF mice: HF mice plasma; for Plasma LDLC, group mean / Plasma TC, group mean: N=5; for HF, plasma TG / HF, plasma TG, group mean / HF, plasma TG (Fast, TG): HF mice; for HF, plasma TG, group mean: n=6; for HF, plasma TG (Fast, TG): fasted
Procedure: Serum total cholesterol (TC), LDL cholesterol (LDL-C), and HDL cholesterol (HDL-C) levels were detected using commercial kits (Beihua, China), and serum VLDL protein was determined by ELISA (Jiancheng, China).
The plasma TG and NEFA levels were determined using corresponding kits from Beihua (China) and WAKO (Japan), respectively. The TG levels of liver and WAT were tested by TG kit (Applygene, China). The NEFA in the liver and WAT were extracted by chloroform–methanol and then subjected to NEFA assay (WAKO).

[1] = APC 10 mg/kg, individual animals
[2] = APC 20 mg/kg, individual animals
[3] = db/db mice, plasma, individual animals

## CC(C)=CCc1cc(C=CC(=O)O)cc(CC=C(C)C)c1O [APC, 3,5-diprenyl-4-hydroxycinnamic acid]
APC 10 mg/kg
  Plasma LDLC, group mean: 35.65
  Plasma TC, group mean: 159.1
  HF, plasma TG, group mean: 266.9
[1]
  Plasma cholesterol fraction: HDL-C: 121.556 mg/dL and 100.915 mg/dL and 96.3277 mg/dL and 114.676 mg/dL and 110.089 mg/dL
  Plasma cholesterol fraction: TC: 183.52 mg/dL and 143.341 mg/dL and 133.376 mg/dL and 156.357 mg/dL and 178.886 mg/dL
  Plasma cholesterol fraction: lDL-C: 34.819 mg/dL and 32.859 mg/dL and 26.6884 mg/dL and 35.653 mg/dL and 48.218 mg/dL
  plasma VLDL-C in HF mice: 7.592 mM and 8.572 mM and 12.094 mM and 7.185 mM and 10.797 mM
  HF, plasma TG: 206.957 mg/dL and 266.745 mg/dL and 324.233 mg/dL and 312.736 mg/dL and 213.856 mg/dL and 276.893 mg/dL
  HF, plasma TG (Fast, TG): 2.336 mM and 3.011 mM and 3.66 mM and 3.53 mM and 2.414 mM and 3.1252 mM
APC 20 mg/kg
  Plasma LDLC, group mean: 35.83
  Plasma TC, group mean: 149.8
  HF, plasma TG, group mean: 239.1
[2]
  Plasma cholesterol fraction: HDL-C: 115.823 mg/dl and 123.85 mg/dl and 106.649 mg/dl (2×) and 111.236 mg/dl
  Plasma cholesterol fraction: TC: 171.677 mg/dL and 165.819 mg/dL and 163.116 mg/dL and 116.704 mg/dL and 131.574 mg/dL
  Plasma cholesterol fraction: lDL-C: 30.997 mg/dL and 43.001 mg/dL and 39.18 mg/dL and 41.345 mg/dL and 24.6089 mg/dL
  plasma VLDL-C in HF mice: 7.201 mM and 6.888 mM and 6.935 mM and 9.593 mM and 6.573 mM
  HF, plasma TG: 191.58 mg/dL and 265.587 mg/dL and 200.059 mg/dL and 301.238 mg/dL and 218.455 mg/dL and 257.547 mg/dL
  HF, plasma TG (Fast, TG): 2.1623 mM and 2.9976 mM and 2.258 mM and 3.4 mM and 2.466 mM and 2.907 mM
WT lean mice ip APC, individual mice
  plasma NEFA: 0.3625 mM and 0.9375 mM (2×) and 0.4375 mM (2×) and 0.3875 mM and 0.3375 mM
[3]
  Plasma HDL cholesterol (HDLC) in db/db mice: 102.090 mg/dL and 118.865 mg/dL and 74.315 mg/dL and 130.914 mg/dL and 101.419 mg/dL
  Plasma LDL cholesterol (LDLC) in db/db mice: 136.268 mg/dL and 110.602 mg/dL and 104.635 mg/dL and 153.302 mg/dL and 128.968 mg/dL
  Plasma total cholesterol (TC) in db/db mice: 321.58 mg/dL and 345.006 mg/dL and 255.56 mg/dL and 362.043 mg/dL and 310.931 mg/dL
  plasma TG in db/db mice: 326.962 mg/dL and 300.088 mg/dL and 273.215 mg/dL and 309.046 mg/dL and 418.497 mg/dL
db/db mice, plasma, mean, N 5
  Plasma total cholesterol (TLC) in db/db mice, group mean: 319 mg/dL
db/db mice, plasma, mean, sample size 5
  Plasma VLDL cholesterol in db/db mice, group mean: 14.3
liver, CRTC2-KO mice, VEH minus drug
  TC in liver_CRTC2KO, Mean Diff. VEH vs. drug: 4.338
liver, CRTC2-KO mice, drug minus VEH
  TG in liver_CT2KO, Mean Diff. vs. VEH: 1.019 mg/g protein
liver, CRTC2-KO mice, group mean (Mean 2), N=6
  TC in liver_CRTC2KO, mean: 47.01
liver, CRTC2-KO mice, group mean, N=6
  TG in liver_CT2KO, mean: 16.67 mg/g protein
liver, CRTC2-KO mice, individual animals, Supp.fig.5c
  TG in liver_CT2KO: 24.3792 mg/g protein and 12.893 mg/g protein and 18.4652 mg/g protein and 10.1068 mg/g protein and 21.2872 mg/g protein and 12.8898 mg/g protein
liver, CRTC2-KO mice, individual animals, Supp.fig.5d
  TC in liver_CT2KO (total cholesterol in the liver of CRTC2-KO): 58.4768 and 29.5309 and 45.7311 and 42.1461 and 61.1694 and 45.0332
liver, WT mice, VEH minus drug
  TC in liver_WT, Mean Diff. VEH vs. drug: 14.77
liver, WT mice, drug minus VEH
  TG in liver_WT, Mean Diff. vs. VEH: -10.82 mg/g protein
liver, WT mice, group mean (Mean 2), N=6
  TC in liver_WT, mean: 45.59
liver, WT mice, group mean, N=6
  TG in liver_WT, mean: 9.137 mg/g protein
liver, WT mice, individual animals, Supp.fig.5c
  TG in liver_WT: 10.5445 mg/g protein and 8.1654 mg/g protein and 11.0077 mg/g protein and 10.5773 mg/g protein and 6.8582 mg/g protein and 7.67 mg/g protein
liver, WT mice, individual animals, Supp.fig.5d
  TC in liver_WT (total cholesterol in the liver): 40.0962 and 49.3508 and 44.4273 and 45.043 and 48.2093 and 46.4302
Oral 20 mg/kg, 3 weeks
  plasma and liver cholesterol, liver TG in Crtc2-KO mice: little effect
